These results are taken from patent publication EP3290412A1, “HIV-1 NUCLEOCAPSID INHIBITORS” (Università degli Studi di Siena, priority 2016, dated 2018).

Broadly, the IC50 is the concentration that inhibits the measured activity by half. Broadly, the inhibition is the percentage by which the read-out fell short of the control. The low end stands for little suppression, the high end for strong suppression.

For data set [1], the system named is HIV-1 reference strain NL4-3. As to the kind of experiment: MonoCycle assay (TZM-bl cells). In kind it is cell-based. The settings on record: Human immunodeficiency virus 1, NL43, TZM-bl, 48 h, read-out: Mono Cycle IC50 nM. As for the experimental part: MonoCycle assay is a cell based assay allowing the evaluation of antiviral activity of HIV-1 inhibitors targeting the early steps of HIV-1 life cycle such as entry, uncoating of viral particles, reverse transcription and integration. The assay consists in the infection of TZM-bl cells (20,000/well) with the HIV-1 reference strain NL4-3 in presence of serial five-fold dilutions of the investigational inhibitors. After 48 hours, cells were lysed adding 40 µl of Glo Lysis Buffer (Promega) to each well for 5 minutes, then 40 µl of Brighy-Glo Luciferase Reagent (Promega) were added to each well for relative luminescence units (RLU) counting using Glo-Max Multi Detection System (Promega). RLU values from each well were elaborated using the GraphPad v5.0 software to calculate the IC50 of each compound.

Data set [2] relates to HIV-1 reference strain NL4-3. Description: BiCycle assay (MT-2 then TZM-bl cells). It counts as cell-based. The settings on record: Human immunodeficiency virus 1, NL43, TZM-bl, read-out: BiCycle IC50 nM. How it is done: BiCycle Assay is cell based assay allowing the evaluation of the antiviral activity of HIV-1 inhibitors on the whole replication cycle of HIV-1. The assay consists in a first round of infection of the T-cell line MT-2 followed by infection of TZM-bl cells. MT-2 cells were seeded at a concentration of 50,000 cells/well in a 96-well plate and infected with the HIV-1 reference strain NL4-3 in presence of five-fold dilutions of the investigational compounds. After 72 hours, 50 µl of supernatant from each well, containing the virus produced in the first round of infection, were used to infect TZM-bl cells seeded in a 96-plate well at a concentration of 30,000 cells/well. Two days later, cells were lysed adding 40 µl of Glo Lysis Buffer (Promega) to each well for 5 minutes, then 40 µl of Brighy-Glo Luciferase Reagent (Promega) were added to each well for relative luminescence units (RLU) counting using Glo-Max Multi Detection System (Promega). RLU values from each well were elaborated using the GraphPad v5.0 software to calculate the IC50 of each compound.

The target in data set [3] is T1, full length (1-55) HIV-1 NCp7 (Human immunodeficiency virus type 1 group M subtype B, UniProt P12493).
T1 construct: recombinant full length (1-55) HIV-1 NCp7 proteins; made in house
As to the kind of experiment: Electromobility Shift Assay (EMSA), competition for ssDNA binding. The settings on record: NCp7 300 nM, M13mp18 ssDNA; positive = >25% inhibition at 100µM. An excerpt: The assay used a recombinant full length (1-55) HIV-1 NCp7 proteins based on the NL4-3 sequence (GenBank accession number AF324493). The protein was expressed and purified as described in [Carteau, S., Gorelick, R. J. & Bushman, F. D. Coupled integration of human immunodeficiency virus type 1 cDNA ends by purified integrase in vitro: stimulation by the viral nucleocapsid protein. Journal of virology 73, 6670-6679 (1999)].
Competition for single-stranded (ss) DNA binding was realized by mixing 1 µL of serial dilutions of NC inhibitors (diluted in DMSO) with 44 µL of NCp7 (300 nM) in a reaction buffer (20 mM Tris-HCl pH 7.4, 2 mM MgCl2, 100 mM NaCl, 1 mM DTT). 5 µL of a 10 ng/µL (4 nM) solution of M13mp18 ssDNA (BayouBiolabs) were then added and the tubes were incubated for 25 minutes at 37 °C. The reaction was terminated by chilling the tubes on ice followed by the addition of 5 µL of a loading buffer (30% glycerol, 0.01% xylene cyanol, 10 mM Tris-HCl pH 7.4). Samples were then resolved on 25 cm-long, 1% (w/v) agarose gels (SeaKem LE Agarose, Lonza) in 0.5x TBE. Gels were run in a Sub-Cell GT cuvette (BioRad) for 18 h at room temperature at 3 V/cm, stained with SybrGold (Molecular Probes) and scanned for fluorescence using a Typhoon 8600 (GE Healthcare). The experiments were performed in triplicate. Competition efficiency was realized by measuring the relative distance in pixels between the unbound ssDNA control, the NCp7-bound ssDNA control and the bound ssDNA for each points of the titration with the ImageQuant software. The IC50 was estimated as the NC inhibitors concentrations for which the bound ssDNA migrated at 50% of the distance separating the bound from the unbound ssDNA.

The target in a further data set is NC(11-55) (Human immunodeficiency virus type 1, UniProt P12493). Description: NC inhibition assay (NC-induced cTAR DNA destabilization, fluorescence). It counts as biochemical, HIV-1. Particulars: for inhibition at 100 µM: single point screening, positive = >25% inhibition at 100µM. An excerpt:
The NC inhibition assay is based on the nucleic acid chaperone activity of the NC protein. NC destabilizes the secondary structure of cTAR DNA, the complementary sequence of the transactivation response element, which is involved in minus-strand DNA transfer during reverse transcription. In the assay, the cTAR sequence from the HIV-1 Mal strain (Bernacchi et al, J Mol Biol, 2002) is labeled with a dye (Alexa488 fluorophore) and a quencher 4-(4'-dimethylaminophenylazo)benzoic acid (Dabcyl) at its 5' and 3' ends, respectively. In the absence of destabilization, the close proximity of both cTAR ends results in a strong fluorescence quenching of the dye emission by the Dabcyl group. NC(11-55) added to cTAR at a ratio of 10 NC/cTAR melts the bottom of the cTAR stem, which increases the distance between the dye and the quencher and as a result increases the dye fluorescence signal [Shvadchak et al, (2009) Identification by high throughput screening of small compounds inhibiting the nucleic acid destabilization activity of the HIV-1 nucleocapsid protein. Biochimie, 916-923]. NCIs are expected to prevent the NC-induced destabilization of cTAR and thus reverse the NC-induced increase in the fluorescence of the labeled cTAR. The activity of the inhibitor is thus evaluated from the ratio of the fluorescence intensity observed in the presence of NC with the molecule to the one in the absence of the compound.
The doubly labelled cTAR DNA oligonucleotides (55nt) were synthesised and purified by IBA GmbH Nucleic Acids Product Supply (Göttingen, Germany). Extinction coefficient at 260 nm of 5.73 x 10^5 M^-1 cm^-1 was used to determine the concentration of cTAR.
The NC(11-55) peptide (Avilov et al, Antimicrob Agents Chemother, 2012) was synthesized by solid-phase peptide synthesis on a 433A synthesizer (ABI, Foster City, CA) as previously described [De Rocquigny H, (1991) First large scale chemical synthesis of the 72 amino acid HIV-1 nucleocapsid protein NCp7 in an active form. Biochem Biophys Res Commun., 1010-1018]. The peptide was stored lyophilized and was resuspended in water before use. The concentration of peptide was determined by using an extinction coefficient of 5.7 x 10^3 M^-1 cm^-1 at 280 nm. Next, 2.5 molar equivalents of ZnSO4 were added and pH was raised to its final value by adding buffer.
All experiments were performed at 20 °C in 25 mM Tris-HCl (pH 7.5), 30 mM NaCl, and 0.2 mM MgCl2. To evaluate the inhibition activity of compounds on NC-induced cTAR destabilization, cTAR DNA (0.1 µM) was preincubated with 1 µM NC(11-55) (molar ratio NC:cTAR = 10:1) for 15 min at room temperature before addition of compound. For single point screening, all compounds were tested at three final concentrations: 1 µM, 10 µM and 100 µM. For the IC50 determination, inhibition of NC-induced cTAR melting was monitored through addition of increasing concentrations of the selected molecules to the pre-formed NC(11-55)-cTAR complex. After the addition of compound, the mixture was incubated for 15 min at room temperature before the reading. The fluorescence signal was recorded with a plate reader Xenius (SAFAS Monaco) or Fluoromax 3 spectrofluorometer (Horiba Jobin-Yvon), and the excitation and emission wavelengths were 480 and 520 nm, respectively. The spectra were corrected for dilution, buffer fluorescence and screening effect (when it was required). In order to check the occurrence of aggregation, we performed additional reading of absorption with the plate reader Xenius (SAFAS Monaco) or Cary 4000 spectrophotometer (Agilent). […]

In the next data set the test system is HeLa cells. As to the kind of experiment: HeLa Proliferation assay (CellTiter Glo). Particulars: 72 hours. In kind it is cell-based. How it is done:
HeLa cells (ATCC® CCL2™) in DMEM (Dulbecco Modified Eagle's Medium) without phenol red, Thermo, 11880, USA + 10% FBS + 1X PenStrep + 1X Gln or HUVEC cells (ATCC® CRL1730™) in EBM-2 (Endothelial Growth Basal Medium, Lonza, CC3156) + EGM-2 SingleQuotsTMSupplements and Growth Factors (Lonza, CC4176) + 1X Penicyllin-Streptomycin (PenStrep, ThermoFisher) + 1X Glutamine, are plated in a 384 well plate (Thermo, 4334-11, USA) to a density of 2000 cells per well and let recover for four hours at 37 °C, 5% CO2 in a humidified atmosphere. After the recovery, compounds are transferred to assay plates as per compound preparation method. Assay plates are then incubated at 37 °C, 5% CO2 in a humidified atmosphere for 72 hours. Cell viability is measured by the CellTiter Glo (Promega, G8080, USA) as per manufacturer instruction.

The subject of data set [4] is Peripheral blood mononuclear cells (PBMC). It counts as cell-based. The settings on record: human, 7 days. As for the experimental part:
Peripheral blood mononuclear cells (PBMC) obtained from healthy donors by separation over Ficoll-Hypaque (GEHealthear-Cat.# GEH17-1440-02) were suspended at 2x10^6 cells/mL in RPMI 1640 (Biowest-Cat.#L0501-500) supplemented with 10% of heat-inactivated sterile fetal bovine serum (Gibco-Cat.#10270-106), 2 mmol/l L-glutamine (Biowest-Cat.#X0550-100), 50 U/mL Penicillin-50 µg/mL Streptomycin (Biowest-Cat.#L0022-100), referred to as complete medium (CM). PBMC were supplemented with 5 µg/mL of phytohaemagglutinin (Sigma Aldr-Cat.#L1668) and cultured in 75 cm^2 flasks (Sarsted-Cat.#833.911.002) for 2 days at 37 °C in a humidified atmosphere with 5% CO2.
PBMC were then washed in CM, counted by trypan blue exclusion (Gibco-Cat. #15250-061), centrifuged and suspended in fresh CM supplemented with 20 IU/mL recombinant human IL-2 (Miltenyi Biotec-Cat.#130-097-748) and seeded in a 96-well-tissue culture plate (Sarsted-Ca#831.837) at the density of 5x10^5 cells/mL (or 1x10^5 cells in 200 µL final CM volume per well). Cells were left untreated (negative control) or treated with different concentrations of the compounds.
After 7 days of incubation cytotoxicity was determined using Promega's CellTiter 96(R) AQueous One Solution Cell Proliferation Assay (MTS assay) (Promega-Cat.#G3581) according to the manufacturer's instuctions. This is a colorimetric method for determining the number of viable cells in proliferation or cytotoxicity assays. The MTS tetrazolium compound is bioreduced by cells into a colored formazan product that is soluble in tissue culture medium. This conversion is presumably accomplished by NADPH or NADH produced by dehydrogenase enzymes in metabolically active cells.
Briefly, MTS solution was thawed at room temperature, or in a water bath at 37 °C and 40 µL of MTS solution was pipeted into each well of the 96-well assay plate containing the samples in 200 µL of culture medium and incubated at 37 °C, 5% CO2 for 4 hours. The optical density was read at 490 nm using a 96-well plate reader (Tecan Infinite F50) and TD50 (toxic dose 50%, dose killing 50% of the cells compared to untreated control) value was calculated by interpolation of the curve obtained by plotting dose against percent mortality and by using "Magellan data analysis software". CM alone plus MTS solution was used as a blank, and cell culture well without compound was used as a cellular control.

The mark [5] stands for this setting: cTAR DNA 0.1 µM, 1 µM NC(11-55), 20 °C, pH 7.5, read-out: NC inhibition IC50.

Like-named read-outs stand apart in the source and are kept apart here. Some results are limits rather than exact numbers.

In the case of `O=C(c1nc(-c2ccccn2)nc(O)c1O)N1CCC(c2ccccc2)CC1` [Compound 9, (5,6-dihydroxy-2-(pyridin-2-yl)pyrimidin-4-yl)(4-phenylpiperidin-1-yl)methanone], the IC50 is 32900 nM in data set [1], 2000 nM in data set [2] and 128 µM at NC(11-55) (setting [5]). Moreover, in data set [3], the EMSA screening results was “Negative”. At NC(11-55), this compound showed an inhibition at 100 µM above 25%.
As to `C[C@@H](NC(=O)c1nc(-c2nccc3[nH]ccc23)nc(O)c1O)C1CCCCC1` [Compound 85, (R)-N-(1-cyclohexylethyl)-5,6-dihydroxy-2-(1H pyrrolo[3,2-c]pyridin-4-yl)pyrimidine-4-carboxamide], the IC50 was above 50000 nM in data set [1], 2670 nM in data set [2] and 11.5 µM on NC(11-55) (setting [5]). Besides, in data set [3], the EMSA screening results is “Positive (A compound showing >25% inhibition when tested at 100µM concentration is considered as "positive")”. Further, the inhibition at 100 µM at NC(11-55) is above 25%.
With `C[C@@H](NC(=O)c1nc(-c2ccc(NC(=O)c3cnco3)cn2)nc(O)c1O)C1CCCCC1` [Compound 82, (R)-N-(6-(4-((1-cyclohexylethyl)carbamoyl)-5,6-dihydroxypyrimidin-2-yl)pyridin-3-yl)oxazole-5-carboxamide], the EMSA screening results in data set [3] is given as “Positive (A compound showing >25% inhibition when tested at 100µM concentration is considered as "positive")”. The “Proliferation assay HELA TD50” value in the data set on HeLa cells is 6.5308 µM. Further, the half-maximal inhibitory concentration (IC50) on NC(11-55) (setting [5]) stood at 19.5 µM. On NC(11-55), this compound gave an inhibition at 100 µM above 25%.
Regarding `C[C@@H](NC(=O)c1nc(-c2ccc(N3CCN(C)CC3)cn2)nc(O)c1O)C1CCCCC1` [Compound 94, (R)-N-(1-cyclohexylethyl)-5,6-dihydroxy-2-(5-(4-methylpiperazin-1-yl)pyridin-2-yl)pyrimidine-4-carboxamide], in data set [4], the “Proliferation assay PBMC TD50” value was 740 nM. In addition, in data set [3], the EMSA screening results was “Negative”. Moreover, on NC(11-55), the IC50 was determined as 18 µM and the inhibition at 100 µM is above 25%.
